Results published in US20220031680A1, “Donecopride As Neuroprotective Agent In the Treatment of Neurodegenerative Diseases” (priority 2018, published 2022).

Legend:
amyloid plaques = experiment: Number of amyloid plaques (thioflavin T) in 5×FAD mouse brain; assay type: in vivo; details: 1 mg/kg twice a week for 3 months; for Amyloid plaque number in hippocampus: compared to controls
Description: 5×FAD mice received chronic treatments with drugs or vehicle according to 2 different protocols. In each experiment, drugs or vehicle solution were administered i.p. twice a week (1 mg/kg). In “Protocol 1”, mice (n=6-7 mice per group) were treated with compounds for two months, from 2 to 4 months of age. In “Protocol 2”, mice (n=7) were treated with compounds for three months, from 1 month to 4 months of age. At the end of each protocol, mice were anesthetized with a mixture of 100 mg/kg ketamine and 10 mg/kg xylazine in saline solution and perfused transcardially with PBS. Brains were quickly isolated on ice, the olfactory bulbs and cerebellum removed and the two hemispheres divided. One hemisphere was frozen on dry ice and stored at −80° C. for biochemical analysis, while the other was post-fixed in 4% PFA for immunohistochemistry (IHC).
Thirty-micrometer-thick sections were cut using a vibratome (Microm HM 650V, Thermo Scientific, Saint Herblain, France) and stored in cryoprotectant medium at −20° C. For the labeling of amyloid plaques, free-floating tissue sections of frontal cortex, hippocampus and entorhinal cortex (coordinates from the bregma: frontal cortex=1.98 mm, hippocampus=−1.94 mm, entorhinal cortex=−3.08 mm) were extensively washed in PBS and then incubated in blocking solution (PBS; 3% BSA; 0.1% Triton X-100) for 1 h. Sections were stained with Hoechst dye (1:1000, Life Technologies, Saint Aubin, France) for 15 minutes to detect cell nuclei and then with freshly prepared thioflavin T solution (#T3516-5G, Sigma-Aldrich) (final concentration: 0.01 mg/ml in blocking buffer) for 15 minutes. After washing in 70% ethanol for 5 minutes, samples were mounted on poly-lysine slides with coverslips. For GFAP (glial fibrillary acidic protein) staining, free-floating brain sections were blocked as before and incubated with polyclonal rabbit anti-GFAP (1:1000, Z0334, Dako, Les Ullis, France) at 4° C. overnight. After thioflavin T staining and washing with 70% ethanol, the secondary Alexafluor 594 goat anti-rabbit antibody (1:1000, A11012, Life Technologies) was added for 2 h. PBS washes and mounting were performed as described before.
Images were acquired with an Axiolmager Z1 microscope (Carl Zeiss S.A.S., Marly le Roi, France). Analysis of thioflavin T staining was performed blindly and data are presented as the mean number of particles per mm^2 in two to three tissue sections from the same brain area/animal (Image J software). GFAP expression was quantified using Image J software and results are expressed as area fractions.
28 female 5×FAD mice (C57BL/6J genetic background) were used in this study. Mice received vehicle or compounds (1 mg/kg) i.p., twice a week for three months, from 1 to 4 months of age.
Anti-amyloid effect. Frontal cortex, hippocampus and entorhinal cortex were analyzed as representative areas of 5×FAD mouse brain (frontal, median and caudal sections) and of human brain regions that are affected early by Alzheimer's disease and are highly enriched in amyloid deposits.

[1] = tested on: dopaminergic TH-positive neurons injured with MPP+; experiment: Survival and neurite network of TH neurons in primary mesencephalic culture injured with MPP+; assay type: cell-based, rat; details: MPP+ 4 μM 48 h; 1 h pre-incubation
Description: The aim of the present study was to investigate the neuroprotective effect of MR36014 and MR33583 (at 4 concentrations) on dopaminergic TH-positive neurons injured with MPP^+. The test compounds were pre-incubated for 1 hour before MPP^+ application (4 μM for 48 h). The neuroprotective effect (survival and neurite network) of test compounds was investigated. In addition, the effect on the cytoplasmic alpha-synuclein accumulation was studied.
Rat dopaminergic neurons were cultured as described by Callizot et al. (2019) PLoS One 14:e0215277 and Visanji et al. (2008) FASEB J. 22:2488-2497. Briefly, pregnant female rat (Wistar) of 15 days of gestation were killed using a deep anesthesia with CO2 chamber and a cervical dislocation. The midbrains obtained from 15-day-old rat embryos (Janvier, France) were dissected under a microscope. […]
Midbrains were dissociated by trypsinisation for 20 min at 37° C. […] Viable cells were counted in a Neubauer cytometer using the trypan blue exclusion test. […]
Briefly, on day 6 of culture, the medium was removed, and fresh medium was added, with or without test compounds and with or without MPP^+ for 48 hours diluted in control medium. 6 wells per condition were assessed. […]
Test compounds were tested in 96-well plate (n=6 culture wells per condition). […] The following conditions were assessed: […]

SMILES: COc1cc(N)c(Cl)cc1C(=O)CCC1CCN(CC2CCCCC2)CC1 [Donecopride]
- Amyloid plaque number in hippocampus (amyloid plaques): not significantly different
- reduction of the number of amyloid plaques in entorhinal cortex (amyloid plaques; compared to vehicle): 24±4%
- reduction of the number of amyloid plaques in frontal cortex (amyloid plaques; compared to vehicle): 16±3%

SMILES: COc1cc(N)c(F)cc1C(=O)CCC1CCN(CC2CCCCC2)CC1 [Flucopride]
- Amyloid plaque number in hippocampus (amyloid plaques): not significantly different
- reduction of the number of amyloid plaques in entorhinal cortex (amyloid plaques; compared to vehicle): 28±6%

SMILES: COc1cc(N)c(F)cc1C(=O)CCC1CCN(CC2CCCC2)CC1 [MR33583]
- concentrations improving TH neuron survival [1]: 100 nM

SMILES: COc1cc(N)c(F)cc1C(=O)CCC1CCN(CC2CCCCCC2)CC1 [MR36014]
- concentrations protecting the neurite network of TH neurons [1]: all investigated doses
